Test system: human moDCs and autologous memory CD4+ T cells
Assay: moDC and memory CD4+ T cell coculture, cytokine secretion and viability
Type: cell-based
Conditions: for IL-1β: MCC950 10 μM or anti-IL-1β 10 μg/mL added to R848+DGP where named, FIG. 36A
Experimental: Monocyte Isolation, Storage, and Differentiation into moDC.
Memory CD4+ T Cell Isolation. The CD14− fraction of the leukapheresis product was collected and used for further isolation of memory CD4+ T cells. First, approximately 5×10^9 total nucleated cells or less of the blood product were pelleted at 200×g for 10 min. The cells were resuspended in two 50 mL conical tubes each containing 25 mL in volume. Cells were then incubated with microbeads targeting red blood cells and granulocytes at 4° C. for 15 min. Cells were loaded on equilibrated MultiMACS columns using the “Deplete” program. Columns were washed twice with separation buffer and the flow-through of peripheral blood mononuclear cells (PBMCs) were collected and counted. The Memory CD4+ T Cell Isolation Kit from Miltenyi was then used to isolate memory CD4+ T cells from the PBMCs. After following the manufacturer's protocol for antibody and microbead incubations, cells were loaded onto equilibrated MultiMACS columns using the “Deplete” program. After 2 column washes using separation buffer, the negative fraction was collected and counted. An aliquot was stained to confirm the purity of the memory CD4 T cell population. […] Vials were placed in CoolCell freezing containers and placed in a −80° C. freezer for no longer than 1 week. Frozen cells were transferred for long-term storage to the vapor phase of a liquid nitrogen freezer until use.
Treatments of Cells For Analysis of Cytokine Secretion. Human moDCs were plated at 5×10^4 cells/well in 96-well U-bottom tissue culture plates in R10++ media by adding 50 μL of cells per well. To each well, 50 μL of memory CD4 T cells at 2.5×10^6 cells/mL was added. For control conditions where only moDC or only CD4 T cells were plated, the missing cells were replaced with an equivalent volume of R10++ media.
Lyophilized R848 stocks were prepared as described above and frozen at −80° C. for storage. An aliquot of frozen R848 was thawed and further diluted to 22.8 μM in R10++ (8 μg/mL R848). A portion of diluted R848 was combined with MCC950 to reach a concentration of 80 μM MCC950. Another portion of diluted R848 was combined with anti-IL-1β blocking antibody to reach a concentration of 80 μg/mL anti-IL-1β. Cell cultures received 25 μL of these mixes depending on desired treatment. For wells not receiving R848 treatment, an equivalent volume of R10++ media was added to wells. For these three chemicals, final concentrations in the wells were 2.85 μM R848, 10 μM MCC950, and 10 μg/mL anti-IL-1β.
A4.44% solution of KP407 dissolved in sterile, distilled water was prepared at a temperature of 4° C. DGP from powder was prepared by adding KP407 solution to lipid. […] Sterile 10×PBS was added to the solution resulting in a 1×PBS concentration. […]

Row | Structure (SMILES) | production of IL-4, IL5, and IL-13 (coculture, 2 days, FIG. 38A-C) | IL-1β (coculture, 2 days) | IFNγ (coculture with anti-CD3, 2 days, MCC950 or anti-IL-1β added to R848+DGP where named, FIG. 37A)
1 | CCCCCCCCCCCCCCCCCCCCCCOC[C@@H](O)COP(=O)(O)O [Compound 2, 1-docosyl-sn-glycerol-3-phosphate] | not elevated compared to unstimulated conditions | minimal IL-1β was detected | 
2 | CC(C)(O)c1coc(S(=O)(=O)NC(=O)Nc2c3c(cc4c2CCC4)CCC3)c1 [MCC950, reference compound] |  | IL-1β was significantly reduced | IFNγ production was significantly reduced

Source: patent publication US20260097111A1, “ETHER LIPIDS FOR HYPERACTIVATION OF MAMMALIAN DENDRITIC CELLS” (priority 2022, published 2026)
